The values below are quoted from earlier work in US11017689B2, “Very low nicotine cigarette blended with very low THC cannabis” (priority 2018, dated 2021).

Data set [1] relates to nicotine self-administration. The settings on record: rats.
In data set [2] the test system is nicotinic acetylcholine receptors (nAChRs).
The conditions of data set [3]: administered orally to rats.
For data set [4] the following is noted: nicotine in tobacco smoke, inhaled.

With `c1cncc([C@@H]2CCCCN2)c1` [anabasine], the “dose-effect function on nicotine self-administration” value in data set [1] is “biphasic”. Besides, the “reduction of nicotine infusions per session” value in data set [1] (2.0 mg/kg of anabasine) was “over 50%”. Moreover, the “increase in nicotine self-administration” value in data set [1] (pretreatment with 0.02 mg/kg anabasine) is given as 25%. The “affinity for nicotinic acetylcholine receptors (nAChRs)” value in data set [2] was “affinity”.

As for `C1=CCC(c2cccnc2)NC1` (centres unmarked) [anatabine], in data set [3], the “elimination half-life relative to that of nicotine” value was 2 to 2.5 fold. Further, the “reduction of nicotine self-administration” value in data set [1] (pretreatment with 2.0 mg/kg anatabine) is “nearly half”. Further, in data set [2], the “affinity for nicotinic acetylcholine receptors (nAChRs)” value is listed as “affinity”.

For `CN1CCCC1c1cccnc1` (centres unmarked) [nicotine], the “time from inhaling the smoke until nicotine reaches the brain” value in data set [4] is on record as “approximately ten”.
